In PubChem BioAssay AID1259407 (Chemical Carcinogenesis Research Information System (CCRIS), 2018):
Active and inactive are the calls of the source. The rule behind the calls is not given here.

System: CCRIS mutagenicity, Ames/micronucleus/aberration tests
Test: CCRIS mutagenicity studies

Measured: mutagenic call

CCN(N=O)c1ccccc1
inactive: Test System: AMES SALMONELLA TYPHIMURIUM, Strain/Indicator: TA1537, Metabolic Activation: HAMSTER, LIVER, S-9, AROCLOR 1254, Method: PREINCUBATION inactive; negative | Test System: AMES SALMONELLA TYPHIMURIUM, Strain/Indicator: TA1537, Metabolic Activation: HAMSTER, LIVER, S-9, AROCLOR 1254, Method: STANDARD PLATE inactive; negative | Test System: AMES SALMONELLA TYPHIMURIUM, Strain/Indicator: TA1537, Metabolic Activation: HAMSTER, LIVER, S-9, Method: PREINCUBATION inactive; negative | Test System: AMES SALMONELLA TYPHIMURIUM, Strain/Indicator: TA1537, Metabolic Activation: HAMSTER, LIVER, S-9, Method: STANDARD PLATE inactive; negative | Test System: AMES SALMONELLA TYPHIMURIUM, Strain/Indicator: TA1537, Metabolic Activation: MOUSE, LIVER, S-9, AROCLOR 1254, Method: PREINCUBATION inactive; negative | Test System: AMES SALMONELLA TYPHIMURIUM, Strain/Indicator: TA1537, Metabolic Activation: MOUSE, LIVER, S-9, AROCLOR 1254, Method: STANDARD PLATE inactive; negative | Test System: AMES SALMONELLA TYPHIMURIUM, Strain/Indicator: TA1537, Metabolic Activation: MOUSE, LIVER, S-9, Method: PREINCUBATION inactive; negative | Test System: AMES SALMONELLA TYPHIMURIUM, Strain/Indicator: TA1537, Metabolic Activation: MOUSE, LIVER, S-9, Method: STANDARD PLATE inactive; negative | Test System: AMES SALMONELLA TYPHIMURIUM, Strain/Indicator: TA1537, Metabolic Activation: NONE, Method: PREINCUBATION inactive; negative | Test System: AMES SALMONELLA TYPHIMURIUM, Strain/Indicator: TA1537, Metabolic Activation: NONE, Method: STANDARD PLATE inactive; negative | Test System: AMES SALMONELLA TYPHIMURIUM, Strain/Indicator: TA1537, Metabolic Activation: RAT, LIVER, S-9, AROCLOR 1254, Method: PREINCUBATION inactive; negative | Test System: AMES SALMONELLA TYPHIMURIUM, Strain/Indicator: TA1537, Metabolic Activation: RAT, LIVER, S-9, AROCLOR 1254, Method: STANDARD PLATE inactive; negative | Test System: AMES SALMONELLA TYPHIMURIUM, Strain/Indicator: TA1537, Metabolic Activation: RAT, LIVER, S-9, Method: PREINCUBATION inactive; negative | Test System: AMES SALMONELLA TYPHIMURIUM, Strain/Indicator: TA1537, Metabolic Activation: RAT, LIVER, S-9, Method: STANDARD PLATE inactive; negative | Test System: AMES SALMONELLA TYPHIMURIUM, Strain/Indicator: TA1538, Metabolic Activation: HAMSTER, LIVER, S-9, AROCLOR 1254, Method: PREINCUBATION inactive; negative | Test System: AMES SALMONELLA TYPHIMURIUM, Strain/Indicator: TA1538, Metabolic Activation: HAMSTER, LIVER, S-9, AROCLOR 1254, Method: STANDARD PLATE inactive; negative | Test System: AMES SALMONELLA TYPHIMURIUM, Strain/Indicator: TA1538, Metabolic Activation: HAMSTER, LIVER, S-9, Method: PREINCUBATION inactive; negative | Test System: AMES SALMONELLA TYPHIMURIUM, Strain/Indicator: TA1538, Metabolic Activation: HAMSTER, LIVER, S-9, Method: STANDARD PLATE inactive; negative | Test System: AMES SALMONELLA TYPHIMURIUM, Strain/Indicator: TA1538, Metabolic Activation: MOUSE, LIVER, S-9, AROCLOR 1254, Method: PREINCUBATION inactive; negative | Test System: AMES SALMONELLA TYPHIMURIUM, Strain/Indicator: TA1538, Metabolic Activation: MOUSE, LIVER, S-9, AROCLOR 1254, Method: STANDARD PLATE inactive; negative | Test System: AMES SALMONELLA TYPHIMURIUM, Strain/Indicator: TA1538, Metabolic Activation: MOUSE, LIVER, S-9, Method: PREINCUBATION inactive; negative | Test System: AMES SALMONELLA TYPHIMURIUM, Strain/Indicator: TA1538, Metabolic Activation: MOUSE, LIVER, S-9, Method: STANDARD PLATE inactive; negative | Test System: AMES SALMONELLA TYPHIMURIUM, Strain/Indicator: TA1538, Metabolic Activation: NONE, Method: PREINCUBATION inactive; negative | Test System: AMES SALMONELLA TYPHIMURIUM, Strain/Indicator: TA1538, Metabolic Activation: NONE, Method: STANDARD PLATE inactive; negative | Test System: AMES SALMONELLA TYPHIMURIUM, Strain/Indicator: TA1538, Metabolic Activation: RAT, LIVER, S-9, AROCLOR 1254, Method: PREINCUBATION inactive; negative | Test System: AMES SALMONELLA TYPHIMURIUM, Strain/Indicator: TA1538, Metabolic Activation: RAT, LIVER, S-9, AROCLOR 1254, Method: STANDARD PLATE inactive; negative | Test System: AMES SALMONELLA TYPHIMURIUM, Strain/Indicator: TA1538, Metabolic Activation: RAT, LIVER, S-9, Method: PREINCUBATION inactive; negative | Test System: AMES SALMONELLA TYPHIMURIUM, Strain/Indicator: TA1538, Metabolic Activation: RAT, LIVER, S-9, Method: STANDARD PLATE inactive; negative | Test System: E. COLI, Strain/Indicator: WP2 UVRA, Metabolic Activation: HAMSTER, LIVER, S-9, AROCLOR 1254, Method: PREINCUBATION inactive; negative | Test System: E. COLI, Strain/Indicator: WP2 UVRA, Metabolic Activation: HAMSTER, LIVER, S-9, AROCLOR 1254, Method: STANDARD PLATE inactive; negative | Test System: E. COLI, Strain/Indicator: WP2 UVRA, Metabolic Activation: HAMSTER, LIVER, S-9, Method: PREINCUBATION inactive; negative | Test System: E. COLI, Strain/Indicator: WP2 UVRA, Metabolic Activation: HAMSTER, LIVER, S-9, Method: STANDARD PLATE inactive; negative | Test System: E. COLI, Strain/Indicator: WP2 UVRA, Metabolic Activation: MOUSE, LIVER, S-9, AROCLOR 1254, Method: PREINCUBATION inactive; negative | Test System: E. COLI, Strain/Indicator: WP2 UVRA, Metabolic Activation: MOUSE, LIVER, S-9, AROCLOR 1254, Method: STANDARD PLATE inactive; negative | Test System: E. COLI, Strain/Indicator: WP2 UVRA, Metabolic Activation: MOUSE, LIVER, S-9, Method: PREINCUBATION inactive; negative | Test System: E. COLI, Strain/Indicator: WP2 UVRA, Metabolic Activation: MOUSE, LIVER, S-9, Method: STANDARD PLATE inactive; negative | Test System: E. COLI, Strain/Indicator: WP2 UVRA, Metabolic Activation: NONE, Method: PREINCUBATION inactive; negative | Test System: E. COLI, Strain/Indicator: WP2 UVRA, Metabolic Activation: NONE, Method: STANDARD PLATE inactive; negative | Test System: E. COLI, Strain/Indicator: WP2 UVRA, Metabolic Activation: RAT, LIVER, S-9, AROCLOR 1254, Method: PREINCUBATION inactive; negative | Test System: E. COLI, Strain/Indicator: WP2 UVRA, Metabolic Activation: RAT, LIVER, S-9, AROCLOR 1254, Method: STANDARD PLATE inactive; negative | Test System: E. COLI, Strain/Indicator: WP2 UVRA, Metabolic Activation: RAT, LIVER, S-9, Method: PREINCUBATION inactive; negative | Test System: E. COLI, Strain/Indicator: WP2 UVRA, Metabolic Activation: RAT, LIVER, S-9, Method: STANDARD PLATE inactive; negative
